From patent publication US20240018122A1, “PYRIDAZINYL AMINO DERIVATIVES AS ALK5 INHIBITORS” (CHIESI FARMACEUTICI S.P.A., priority 2020, published 2024)

Molecular target: human ALK5 (Homo sapiens (Human), UniProt P36897)
Assay: ADP-GLO Kinases assay, inhibitory activity on ALK5
Type: biochemical
Conditions: not given

human ALK5, sequence (P36897 80-503 limits assumed): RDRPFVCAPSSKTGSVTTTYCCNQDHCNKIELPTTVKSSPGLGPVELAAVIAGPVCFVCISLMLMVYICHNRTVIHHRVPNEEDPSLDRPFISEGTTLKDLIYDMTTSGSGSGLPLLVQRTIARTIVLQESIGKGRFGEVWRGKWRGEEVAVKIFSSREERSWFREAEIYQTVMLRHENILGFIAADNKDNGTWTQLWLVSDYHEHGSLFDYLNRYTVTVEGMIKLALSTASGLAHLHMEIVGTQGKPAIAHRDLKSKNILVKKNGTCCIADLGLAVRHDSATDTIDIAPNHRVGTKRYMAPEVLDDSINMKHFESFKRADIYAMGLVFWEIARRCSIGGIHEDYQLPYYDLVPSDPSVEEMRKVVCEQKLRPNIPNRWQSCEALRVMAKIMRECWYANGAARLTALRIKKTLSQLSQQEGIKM

Cc1nnc(-c2cc(Cl)ccc2F)cc1Nc1ccnc2cc(OC(=O)N3CCN(CCC4CCN(C)CC4)C(C(=O)OC4COC4)C3)ccc12 (centres unmarked) [Example 168, 1-(4-{[6-(5-chloro-2-fluorophenyl)-3-methylpyridazin-4-yl]amino}quinolin-7-yl) 3-oxetan-3-yl 4-[2-(1-methylpiperidin-4-yl)ethyl]piperazine-1,3-dicarboxylate] and CN1CCC(N2CCN(C(=O)Oc3ccc4c(Nc5cnnc(-c6cc(Cl)ccc6F)c5)ccnc4c3)CC2)CC1 [Example 103, 4-{[6-(5-Chloro-2-Fluorophenyl)Pyridazin-4-Yl]Amino}Quinolin-7-Yl 4-(1-Methylpiperidin-4-Yl)Piperazine-1-Carboxylate] fall in the same range of IC50: 1 to 5 nM for the first, 1 to 5 nM for the second.

CS(=O)(=O)CCN1CCN(C(=O)Oc2ccc3c(Nc4cnnc(-c5cc(Cl)ccc5F)c4)ccnc3c2)CC1 [Example 53, 4-{[6-(5-Chloro-2-Fluorophenyl)Pyridazin-4-Yl]Amino}Quinolin-7-Yl 4-(2-Methanesulfonylethyl)Piperazine-1-Carboxylate] and O=C(Oc1ccc2c(Nc3cnnc(-c4cc(Cl)ccc4F)c3)ccnc2c1)N1CCN(CCO)CC1 [Example 57, 4-{[6-(5-Chloro-2-Fluorophenyl)Pyridazin-4-Yl]Amino}Quinolin-7-Yl 4-(2-Hydroxyethyl)Piperazine-1-Carboxylate] fall in the same range of IC50: 1 to 5 nM for the first, 1 to 5 nM for the second.

Compound CN1CCN(C(=O)Oc2ccc3c(Nc4cnnc(-c5cc(Cl)ccc5F)c4)ccnc3c2)CC1 [Example 28, 4-{[6-(5-Chloro-2-Fluorophenyl)Pyridazin-4-Yl]Amino}Quinolin-7-Yl 4-Methylpiperazine-1-Carboxylate] has an IC50 of 1 to 5 nM.

Same assay, conditions: purified recombinant human ALK5 2.6 nM, TGFβ1 peptide substrate, 25° C, 150 min incubation, ADP-Glo detection; read-out: ALK5 IC50

Cc1nnc(-c2cc(Cl)ccc2F)cc1Nc1ccnc(NC(=O)CCN2CCN(CCC#N)CC2)c1 [Example 84, N-(4-{[6-(5-Chloro-2-Fluorophenyl)-3-Methylpyridazin-4-Yl]Amino}Pyridin-2-Yl)-3-[4-(2-Cyanoethyl)Piperazin-1-Yl]Propanamide] and Cc1nnc(-c2cc(Cl)ccc2F)cc1Nc1ccnc(NC(=O)NCCN2CCN(C)CC2)c1 [Example 141, 1-(4-{[6-(5-Chloro-2-Fluorophenyl)-3-Methylpyridazin-4-Yl]Amino}Pyridin-2-Yl)-3-[2-(4-Methylpiperazin-1-Yl)Ethyl]Urea] cannot be ordered by IC50: < 1 nM for the first, < 1 nM for the second.

Nc1cc(Nc2cc(-c3cc(Cl)ccc3F)nnc2C(F)(F)F)ccn1 [Example 180, N4-[6-(5-Chloro-2-Fluorophenyl)-3-(Trifluoromethyl)Pyridazin-4-Yl]Pyridine-2,4-Diamine] and Cc1nnc(-c2cc(Cl)ccc2F)cc1Nc1ccnc(NC(=O)N2CCN(C)CC2)c1 [Example 85, N-(4-{[6-(5-Chloro-2-Fluorophenyl)-3-Methylpyridazin-4-Yl]Amino}Pyridin-2-Yl)-4-Methylpiperazine-1-Carboxamide] cannot be ordered by IC50: < 1 nM for the first, < 1 nM for the second.

Cc1nnc(-c2cc(Cl)ccc2F)cc1Nc1ccnc2cc(OC(=O)N3CCC(N4CCC4)CC3)ccc12 [Example 153, 4-{[6-(5-Chloro-2-Fluorophenyl)-3-Methylpyridazin-4-Yl]Amino}Quinolin-7-Yl 4-(Azetidin-1-Yl)Piperidine-1-Carboxylate] and Cc1nnc(-c2cc(Cl)ccc2F)cc1Nc1ccnc2cc(OCCN3CCN(C)CC3)ccc12 [Example 48, N-[6-(5-Chloro-2-Fluorophenyl)-3-Methylpyridazin-4-Yl]-7-[2-(4-Methylpiperazin-1-Yl)Ethoxy]Quinolin-4-Amine] cannot be ordered by IC50: < 1 nM for the first, < 1 nM for the second.

O=C(NCCN1CCOCC1)c1ccc2c(Nc3cnnc(-c4cc(Cl)ccc4F)c3)ccnc2c1 [Example 4, 4-{[6-(5-Chloro-2-Fluorophenyl)Pyridazin-4-Yl]Amino}-N-[2-(Morpholin-4-Yl)Ethyl]Quinoline-7-Carboxamide] and O=C(NCCN1CCNCC1)c1ccc2c(Nc3cnnc(-c4cc(Cl)ccc4F)c3)ccnc2c1 [Example 10, 4-{[6-(5-Chloro-2-Fluorophenyl)Pyridazin-4-Yl]Amino}-N-[2-(Piperazin-1-Yl)Ethyl]Quinoline-7-Carboxamide] cannot be ordered by IC50: < 1 nM for the first, < 1 nM for the second.

First: CN1CCC(COc2ccc3c(Nc4cnnc(-c5cc(Cl)ccc5F)c4)ccnc3c2)CC1 [Example 89, N-[6-(5-Chloro-2-Fluorophenyl)Pyridazin-4-Yl]-7-[(1-Methylpiperidin-4-Yl)Methoxy]Quinolin-4-Amine]
Second: CN1CCN(C(=O)COc2ccc3c(Nc4cnnc(-c5cc(Cl)ccc5F)c4)ccnc3c2)CC1 [Example 39, 2-[(4-{[6-(5-Chloro-2-Fluorophenyl)Pyridazin-4-Yl]Amino}Quinolin-7-Yl)Oxy]-1-(4-Methylpiperazin-1-Yl)Ethan-1-One]
The IC50 of the first is lower: < 1 nM for the first, 1 to 5 nM for the second.

Fc1ccc(Cl)cc1-c1cc(Nc2ccnc3cc(OCCN4CCN(CC(F)(F)F)CC4)ccc23)cnn1 [Example 41, N-[6-(5-Chloro-2-Fluorophenyl)Pyridazin-4-Yl]-7-{2-[4-(2,2,2-Trifluoroethyl)Piperazin-1-Yl]Ethoxy}Quinolin-4-Amine] and OCCN1CCN(CCOc2ccc3c(Nc4cnnc(-c5cc(Cl)ccc5F)c4)ccnc3c2)CC1 [Example 72, 2-(4-{2-[(4-{[6-(5-Chloro-2-Fluorophenyl)Pyridazin-4-Yl]Amino}Quinolin-7-Yl)Oxy]Ethyl}Piperazin-1-Yl)Ethan-1-Ol] cannot be ordered by IC50: < 1 nM for the first, < 1 nM for the second.

COc1cc2c(Nc3cnnc(-c4cc(Cl)ccc4F)c3)ccnc2cc1OCCN1CCN(C)CC1 [Example 87, N-[6-(5-Chloro-2-Fluorophenyl)Pyridazin-4-Yl]-6-Methoxy-7-[2-(4-Methylpiperazin-1-Yl)Ethoxy]Quinolin-4-Amine] and CN1CCN(CCNC(=O)c2ccc3c(Nc4cnnc(-c5cc(Cl)ccc5F)c4)ccnc3c2)CC1 [Example 13, 4-{[6-(5-Chloro-2-Fluorophenyl)Pyridazin-4-Yl]Amino}-N-[3-(4-Methylpiperazin-1-Yl)Ethyl]Quinoline-7-Carboxamide] cannot be ordered by IC50: < 1 nM for the first, < 1 nM for the second.

Cc1nnc(-c2cc(Cl)ccc2F)cc1Nc1ccnc(Nc2ccn(CCN3CCN(C)CC3)n2)c1 [Example 167, N-4-[6-(5-Chloro-2-Fluorophenyl)-3-Methylpyridazin-4-Yl]-N-2-{1-[2-(4-Methylpiperazin-1-Yl)Ethyl]-1H-Pyrazol-3-Yl}Pyridine-2,4-Diamine] and Cc1nnc(-c2cc(Cl)c(F)cc2F)cc1Nc1ccnc(NC(=O)CCN2CCN(C)CC2)c1 [Example 151, N-(4-{[6-(5-chloro-2,4-difluorophenyl)-3-methylpyridazin-4-yl]amino}pyridin-2-yl)-3-(4-methylpiperazin-1-yl)propanamide] cannot be ordered by IC50: < 1 nM for the first, < 1 nM for the second.

Cc1nnc(-c2cc(Cl)ccc2F)cc1Nc1ccnc(NC(=O)CCN2CC3CC(C2)N3C)c1 [Example 146, N-(4-{[6-(5-Chloro-2-Fluorophenyl)-3-Methylpyridazin-4-Yl]Amino}Pyridin-2-Yl)-3-{6-Methyl-3,6-Diazabicyclo[3.1.1]Heptan-3-Yl}Propanamide] and Cc1nnc(-c2cc(Cl)ccc2F)cc1Nc1ccnc(NC(=O)CCN2CC3CC2CN3C)c1 (centres unmarked) [Example 121, N-(4-{[6-(5-Chloro-2-Fluorophenyl)-3-Methylpyridazin-4-Yl]Amino}Pyridin-2-Yl)-3-{5-Methyl-2,5-Diazabicyclo[2.2.1]Heptan-2-Yl}Propanamide] cannot be ordered by IC50: < 1 nM for the first, < 1 nM for the second.

CS(=O)(=O)NCCN1CCN(CCOc2ccc3c(Nc4cnnc(-c5cc(Cl)ccc5F)c4)ccnc3c2)CC1 [Example 67, N-[2-(4-{2-[(4-{[6-(5-Chloro-2-Fluorophenyl)Pyridazin-4-Yl]Amino}Quinolin-7-Yl)Oxy]Ethyl}Piperazin-1-Yl)Ethyl]Methanesulfonamide] and CN1CCCN(CCCOc2ccc3c(Nc4cnnc(-c5cc(Cl)ccc5F)c4)ccnc3c2)C1 [Example 52, N-[6-(5-Chloro-2-Fluorophenyl)Pyridazin-4-Yl]-7-[3-(3-Methyl-1,3-Diazinan-1-Yl)Propoxy]Quinolin-4-Amine] cannot be ordered by IC50: < 1 nM for the first, < 1 nM for the second.

Compared with O=C(CCN1CCN(CC(F)(F)F)CC1)Nc1cc(Nc2cnnc(-c3cc(Cl)ccc3F)c2)ccn1 [Example 47, N-(4-{[6-(5-Chloro-2-Fluorophenyl)Pyridazin-4-Yl]Amino}Pyridin-2-Yl)-3-[4-(2,2,2-Trifluoroethyl)Piperazin-1-Yl]Propanamide], CC(=O)N1CCN(CCC(=O)Nc2cc(Nc3cnnc(-c4cc(Cl)ccc4F)c3)ccn2)CC1 [Example 31, 3-(4-Acetylpiperazin-1-Yl)-N-(4-{[6-(5-Chloro-2-Fluorophenyl)Pyridazin-4-Yl]Amino}Pyridin-2-Yl)Propanamide] is lower in IC50: 1 to 5 nM for the first, < 1 nM for the second.

Cc1nnc(-c2cc(Cl)ccc2F)cc1Nc1ccnc(NC(=O)CC2CCN(C)CC2)c1 [Example 157, N-(4-{[6-(5-Chloro-2-Fluorophenyl)-3-Methylpyridazin-4-Yl]Amino}Pyridin-2-Yl)-2-(1-Methylpiperidin-4-Yl)Acetamide] and Cc1nnc(-c2cc(Cl)ccc2F)cc1Nc1ccnc(NC(=O)CCN2CCOC3(CN(C)C3)C2)c1 [Example 147, N-(4-{[6-(5-chloro-2-fluorophenyl)-3-methylpyridazin-4-yl]amino}pyridin-2-yl)-3-{2-methyl-5-oxa-2,8-diazaspiro[3.5]nonan-8-yl}propanamide] cannot be ordered by IC50: < 1 nM for the first, < 1 nM for the second.

O=C(CCN1CCNCC1)Nc1cc(Nc2cnnc(-c3cc(Cl)ccc3F)c2)ccn1 [Example 2, N-(4-{[6-(5-Chloro-2-Fluorophenyl)Pyridazin-4-Yl]Amino}Pyridin-2-Yl)-3-(Piperazin-1-Yl)Propanamide] and CNCCn1cc(C(=O)Nc2cc(Nc3cc(-c4cc(Cl)ccc4F)nnc3C)ccn2)cn1 [Example 155, N-(4-{[6-(5-Chloro-2-Fluorophenyl)-3-Methylpyridazin-4-Yl]Amino}Pyridin-2-Yl)-1-[2-(Methylamino)Ethyl]-1H-Pyrazole-4-Carboxamide] cannot be ordered by IC50: < 1 nM for the first, < 1 nM for the second.

For CN1C[C@@H]2CN(CCOc3ccc4c(Nc5cnnc(-c6cc(Cl)ccc6F)c5)ccnc4c3)C[C@@H]2C1 [Example 55, Cis N-[6-(5-Chloro-2-Fluorophenyl)Pyridazin-4-Yl]-7-(2-{5-Methyl-Octahydropyrrolo[3,4-c]Pyrrol-2-Yl}Ethoxy)Quinolin-4-Amine], the IC50 was < 1 nM.
